Test results from the supplement of paper PMC10883282.

Key:
Experiment in all cases: relative viability vs DMSO control (72 h) (fraction); higher = more viable cells
A204 = tested on: A204
Outline: (§1)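 ATPLite readings, expressed as percent growth and averaged over up to triplicate wells, provided relative viability. Before reading, sarcoma cell lines seeded in 384-well plates to reach 80–90% confluence received 2.5 µl of serially diluted compound after 24 h, from source plates of 10 mM to 0.0002 mM. Plates were held 72 h at 37 °C, 5% CO2, with 0.1% DMSO as vehicle and a 5 µM positive control. The data were rescaled to 1 for full and 0 for none.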

G401 = tested on: G401
Outline: as §1

HS729 = tested on: HS729
Outline: as §1

HT1080 = tested on: HT1080
Outline: as §1

KHOS-NP = tested on: KHOS-NP
Outline: as §1

MES-SA = tested on: MES-SA
Outline: as §1

SK-LMS-1 = tested on: SK-LMS-1
Outline: as §1

SW1353 = tested on: SW1353
Outline: as §1

SW684 = tested on: SW684
Outline: as §1

SW872 = tested on: SW872
Outline: as §1

SYO-1 = tested on: SYO-1
Outline: as §1

VA-ES-BJ = tested on: VA-ES-BJ
Outline: as §1

C[C@H](Nc1ncnc2nc[nH]c12)c1cc2cccc(Cl)c2c(=O)n1-c1ccccc1 [Duvelisib]
Conditions | relative viability
A204, 0.00017 µM | 1.1
A204, 0.00051 µM | 1.09
A204, 0.00152 µM | 1.07
A204, 0.00457 µM | 1.096
A204, 0.01372 µM | 1.08
A204, 0.04115 µM | 1.06
A204, 0.1235 µM | 1.01
A204, 0.3704 µM | 0.908
A204, 1.111 µM | 0.761
A204, 3.333 µM | 0.555
A204, 10 µM | 0.445
G401, 0.00017 µM | 1.07
G401, 0.00051 µM | 1.03
G401, 0.00152 µM | 1.05
G401, 0.00457 µM | 1.017
G401, 0.01372 µM | 0.987
G401, 0.04115 µM | 0.983
G401, 0.1235 µM | 0.966
G401, 0.3704 µM | 0.9339
G401, 1.111 µM | 0.862
G401, 3.333 µM | 0.763
G401, 10 µM | 0.593
HS729, 0.00017 µM | 1.06
HS729, 0.00051 µM | 1.09
HS729, 0.00152 µM | 1.03
HS729, 0.00457 µM | 1.03
HS729, 0.01372 µM | 1
HS729, 0.04115 µM | 0.987
HS729, 0.1235 µM | 1.02
HS729, 0.3704 µM | 0.891
HS729, 1.111 µM | 0.863
HS729, 3.333 µM | 0.726
HS729, 10 µM | 0.606
HT1080, 0.00017 µM | 1.11
HT1080, 0.00051 µM | 1.14
HT1080, 0.00152 µM | 1.13
HT1080, 0.00457 µM | 1.126
HT1080, 0.01372 µM | 1.08
HT1080, 0.04115 µM | 1.14
HT1080, 0.1235 µM | 1.124
HT1080, 0.3704 µM | 1.138
HT1080, 1.111 µM | 1.147
HT1080, 3.333 µM | 1.13
HT1080, 10 µM | 1.07
KHOS-NP, 0.00017 µM | 1.09
KHOS-NP, 0.00051 µM | 1.09
KHOS-NP, 0.00152 µM | 1.1
KHOS-NP, 0.00457 µM | 1.1
KHOS-NP, 0.01372 µM | 1.121
KHOS-NP, 0.04115 µM | 1.09
KHOS-NP, 0.1235 µM | 1.07
KHOS-NP, 0.3704 µM | 1.07
KHOS-NP, 1.111 µM | 1.08
KHOS-NP, 3.333 µM | 1.07
KHOS-NP, 10 µM | 1.07
MES-SA, 0.00017 µM | 0.98
MES-SA, 0.00051 µM | 0.961
MES-SA, 0.00152 µM | 0.964
MES-SA, 0.00457 µM | 0.944
MES-SA, 0.01372 µM | 0.906
MES-SA, 0.04115 µM | 0.9422
MES-SA, 0.1235 µM | 0.923
MES-SA, 0.3704 µM | 0.849
MES-SA, 1.111 µM | 0.77
MES-SA, 3.333 µM | 0.631
MES-SA, 10 µM | 0.453
SK-LMS-1, 0.00017 µM | 1.05
SK-LMS-1, 0.00051 µM | 1.04
SK-LMS-1, 0.00152 µM | 1.08
SK-LMS-1, 0.00457 µM | 1.05
SK-LMS-1, 0.01372 µM | 1.03
SK-LMS-1, 0.04115 µM | 0.9363
SK-LMS-1, 0.1235 µM | 0.91
SK-LMS-1, 0.3704 µM | 0.811
SK-LMS-1, 1.111 µM | 0.688
SK-LMS-1, 3.333 µM | 0.572
SK-LMS-1, 10 µM | 0.438
SW684, 0.00017 µM | 1.15
SW684, 0.00051 µM | 1.11
SW684, 0.00152 µM | 1.09
SW684, 0.00457 µM | 0.899
SW684, 0.01372 µM | 0.838
SW684, 0.04115 µM | 0.722
SW684, 0.1235 µM | 0.683
SW684, 0.3704 µM | 0.633
SW684, 1.111 µM | 0.543
SW684, 3.333 µM | 0.501
SW684, 10 µM | 0.453
SW872, 0.00017 µM | 1.11
SW872, 0.00051 µM | 1.1
SW872, 0.00152 µM | 1.08
SW872, 0.00457 µM | 1.11
SW872, 0.01372 µM | 1.08
SW872, 0.04115 µM | 1.03
SW872, 0.1235 µM | 1.02
SW872, 0.3704 µM | 0.897
SW872, 1.111 µM | 0.813
SW872, 3.333 µM | 0.666
SW872, 10 µM | 0.519
SW1353, 0.00017 µM | 1.074
SW1353, 0.00051 µM | 1.06
SW1353, 0.00152 µM | 1.03
SW1353, 0.00457 µM | 1.02
SW1353, 0.01372 µM | 1.02
SW1353, 0.04115 µM | 0.996
SW1353, 0.1235 µM | 0.915
SW1353, 0.3704 µM | 0.885
SW1353, 1.111 µM | 0.786
SW1353, 3.333 µM | 0.761
SW1353, 10 µM | 0.614
SYO-1, 0.00017 µM | 1.03
SYO-1, 0.00051 µM | 1.01
SYO-1, 0.00152 µM | 0.994
SYO-1, 0.00457 µM | 0.995
SYO-1, 0.01372 µM | 0.9906
SYO-1, 0.04115 µM | 1.01
SYO-1, 0.1235 µM | 0.925
SYO-1, 0.3704 µM | 0.911
SYO-1, 1.111 µM | 0.841
SYO-1, 3.333 µM | 0.797
SYO-1, 10 µM | 0.688
VA-ES-BJ, 0.00017 µM | 1.09
VA-ES-BJ, 0.00051 µM | 1.1
VA-ES-BJ, 0.00152 µM | 1.09
VA-ES-BJ, 0.00457 µM | 1.1
VA-ES-BJ, 0.01372 µM | 1.08
VA-ES-BJ, 0.04115 µM | 1.06
VA-ES-BJ, 0.1235 µM | 1.01
VA-ES-BJ, 0.3704 µM | 0.941
VA-ES-BJ, 1.111 µM | 0.834
VA-ES-BJ, 3.333 µM | 0.688
VA-ES-BJ, 10 µM | 0.48
